Measured values from patent US9296776B2, “Substituted nucleoside derivatives with antiviral and antimicrobial properties” (Eastern Virginia Medical School, priority 2007, dated 2016).
Values after ≈ are worked out from the molar mass of the structure shown. Read-outs that look alike come from different tables or passages of the source.

Assays:
Assay type in all cases: cell-based
[1] = system: HIV-1 IIIB (cell-free virus); test: microbe, parasite or virus in culture; conditions: for EC50 Cell-Free Virus IIIB: Table 6; for EC50 Cell-free HIV-1 (IIIB) / EC50: Table 8; for EC50: read-out: EC50 Cell-free HIV-1 (IIIB); for IC50: Human immunodeficiency virus 1, IIIB, read-out: IC50 Cell-Free Virus IIIB
[2] = system: HIV-1 BaL (cell-free virus); test: Single-round infection assay, cell-free virus BaL; conditions: for EC50 Cell-Free Virus BaL: Table 6; for IC50: Human immunodeficiency virus 1, BAL, read-out: IC50 Cell-Free Virus BaL
[3] = system: Cell-associated HIV-1, SupT1 (IIIB); test: Single-round infection assay, cell-associated virus SupT1 (IIIB); conditions: for IC50: Human immunodeficiency virus 1, IIIB
[4] = Table 1, 2 h incubation, wash, 48 h culture
[5] = 2 h incubation, wash, 48 h culture
[6] = SUP-T1, Table 1, 2 h incubation, wash, 48 h culture, read-out: IC50 Cell-Associated Virus SupT1 (IIIB)

| Molecule | IC50 Cell-Free Virus IIIB [1, 4] | IC50 Cell-Free Virus BaL [2, 4] | IC50 Cell-Associated Virus SupT1 (IIIB) [3, 4] | EC50 Cell-free HIV-1 (IIIB) [1, 5] | EC50 [1, 5] | further results |
| --- | --- | --- | --- | --- | --- | --- |
| Suramin-3′-fluoro-2′,3′-dideoxythymidine [Suramin-FLT] | – | – | – | – | – | EC50 Cell-Free Virus IIIB [1]: 23.6 µg/mL; EC50 Cell-Free Virus BaL [2]: 6.2 µg/mL |
| Suramin-3′-azido-2′,3′-dideoxythymidine [Suramin-AZT] | – | – | – | – | – | EC50 Cell-Free Virus IIIB [1]: 19.4 µg/mL; EC50 Cell-Free Virus BaL [2]: 7.3 µg/mL |
| CCCCCCCCCCCCCCOC[C@H]1O[C@@H](n2cc(C)c(=O)[nH]c2=O)C[C@@H]1N=[N+]=[N-] [3′-azido-2′,3′-dideoxy-5′-O-(tetradecyl)thymidine] | 57.8 µg/mL (≈ 125 µM) | 12.8 µg/mL (≈ 27.6 µM) | >100 µg/mL | – | – | – |
| CCCCCCCCCCCCCC(=O)NC(CCC(=O)OC[C@H]1O[C@@H](n2cc(C)c(=O)[nH]c2=O)C[C@@H]1F)C(=O)OC[C@@H]1O[C@H](n2ccc(N)nc2=O)CS1 (stereo partly shown) [KPH-97] | – | – | – | 1.6 µg/mL (≈ 2.01 µM) | 2 µM | – |
| CCCCCCCCCCCCCC(=O)OC[C@H]1O[C@@H](n2ccc(N)nc2=O)CS1 [5′-O-tetradecanoyl-2′,3′-dideoxy-3′-thiacytidine] | – | – | – | – | – | IC50 [1, 4]: 0.3 µg/mL (≈ 0.682 µM); IC50 [2, 4]: 0.082 µg/mL (≈ 0.187 µM); IC50 [3, 6]: 27.3 µg/mL (≈ 62.1 µM) |
| Cc1cn([C@H]2C[C@H](F)[C@@H](COC(=O)CCCCCCCCCCCN)O2)c(=O)[nH]c1=O [3′-fluoro-2′,3′-dideoxy-5′-O-(12-aminododecanoyl)thymidine] | 0.67 µg/mL (≈ 1.52 µM) | – | – | – | – | – |
| CCCCCCCCCCCCCC(=O)NC(CCC(=O)OC[C@H]1O[C@@H](n2cc(C)c(=O)[nH]c2=O)C[C@@H]1N=[N+]=[N-])C(=O)OC[C@@H]1O[C@H](n2ccc(N)nc2=O)CS1 (stereo partly shown) [KPH-910] | – | – | – | 4.9 µg/mL (≈ 5.99 µM) | 6 µM | – |
| CCCCCCCCCCCCCC(=O)Nc1ccn([C@H]2CS[C@@H](COC(=O)CCCCCCCCCCCCC)O2)c(=O)n1 [N4, 5′-O-dimyristoyl-2′,3′-dideoxy-3′-thiacytidine] | – | – | – | – | – | IC50 [1, 4]: > 100 µg/mL; IC50 [2, 4]: 87.8 µg/mL (≈ 135 µM); IC50 [3, 6]: > 100 µg/mL |
| Nc1nc(=O)n([C@H]2CS[C@@H](CO)O2)cc1F [2′,3′-dideoxy-5-fluoro-3′-thiacytidine, reference compound] | – | – | – | – | – | IC50 [1, 4]: 0.48 µg/mL (≈ 1.94 µM); IC50 [2, 4]: 0.18 µg/mL (≈ 0.728 µM); IC50 [3, 6]: 21.9 µg/mL (≈ 88.6 µM) |
| CC(=O)NC(CCC(=O)OC[C@H]1O[C@@H](n2cc(C)c(=O)[nH]c2=O)C[C@@H]1F)C(=O)OC[C@H]1O[C@@H](n2cc(C)c(=O)[nH]c2=O)C[C@@H]1N=[N+]=[N-] (stereo partly shown) [KPH-98, FLT(Glutamyl)-AZT] | – | – | – | 9.0 µg/mL (≈ 13.5 µM) | 13.5 µM | – |
| CCCCCCCCCCCCCC(=O)OC[C@@H]1C=C[C@H](n2cc(C)c(=O)[nH]c2=O)O1 [5′-O-myristoyl-2′,3′-didehydro-2′,3′-dideoxythymidine] | 34 µg/mL (≈ 78.2 µM) | 5.4 µg/mL (≈ 12.4 µM) | >100 µg/mL | – | – | – |
| Cc1cn(C2C=CC(COC(=O)CCCCCCCCCCCSCCN=[N+]=[N-])O2)c(=O)[nH]c1=O (stereo not shown) [5′-O-(12-thioethylazidodecanoyl)-2′,3′-didehydro-2′,3′-dideoxythymidine] | 6.7 µg/mL (≈ 13.2 µM) | 2.7 µg/mL (≈ 5.32 µM) | 21.7 µg/mL (≈ 42.7 µM) | – | – | – |
| [N-]=[N+]=NCCCCCCCCCCCC(=O)Nc1ccn([C@H]2CS[C@@H](CO)O2)c(=O)n1 [N4-(12-azidodecanoyl)-2′,3′-dideoxy-3′-thiacytidine] | 13.3 µg/mL (≈ 29.4 µM) | 1.7 µg/mL (≈ 3.76 µM) | 6.6 µg/mL (≈ 14.6 µM) | – | – | – |
| Cc1cn([C@H]2C=C[C@@H](CO)O2)c(=O)[nH]c1=O [2′,3′-didehydro-2′,3′-dideoxythymidine, reference compound] | – | – | – | – | – | IC50 [1]: 6 µg/mL (≈ 26.8 µM); IC50 [2]: 6.3 µg/mL (≈ 28.1 µM); IC50 ([3]; SUP-T1, read-out: IC50 Cell-Associated Virus SupT1 (IIIB)): 30.5 µg/mL (≈ 136 µM) |
| Cc1cn([C@H]2C[C@H](N=[N+]=[N-])[C@@H](COC(=O)CCC(NC(=O)CCC(=O)OC[C@H]3O[C@@H](n4cc(C)c(=O)[nH]c4=O)C[C@@H]3F)C(=O)OC[C@@H]3O[C@H](n4ccc(N)nc4=O)CS3)O2)c(=O)[nH]c1=O (stereo partly shown) [KPH-914, FLT-Succinate-AZT(glutamyl)-3TC] | – | – | – | 0.9 µg/mL (≈ 0.964 µM) | 0.96 µM | – |
| [N-]=[N+]=NCCCCCCCCCCCC(=O)Nc1ccn(C2CSC(COC(=O)CCCCCCCCCCCN=[N+]=[N-])O2)c(=O)n1 (stereo not shown) [N4, 5′-O-di(12-azidodecanoyl)-2′,3′-dideoxy-3′-thiacytidine] | >100 µg/mL | 49.1 µg/mL (≈ 72.6 µM) | >100 µg/mL | – | – | – |
| Cc1cn([C@H]2C[C@H](N=[N+]=[N-])[C@@H](COC(=O)CCCCCCCCCCCBr)O2)c(=O)[nH]c1=O [3′-azido-2′,3′-dideoxy-5′-O-(12-bromododecanoyl)thymidine] | 5.6 µg/mL (≈ 10.6 µM) | 2.6 µg/mL (≈ 4.92 µM) | >100 µg/mL | – | – | – |
| Cc1cn([C@H]2C[C@H](F)[C@@H](CO)O2)c(=O)[nH]c1=O [3′-fluoro-2′,3′-deoxythymidine (FLT), 3′-fluoro-2′,3′-deoxythymidine, reference compound] | 0.2 µg/mL (≈ 0.819 µM) | 0.1 µg/mL (≈ 0.409 µM) | >100 µg/mL | 0.2 µg/mL (≈ 0.819 µM) | 0.8 µM | – |
| CCCCCCCCCCCCCC(=O)Nc1ccn([C@H]2CS[C@@H](CO)O2)c(=O)n1 [N4-tetradecanoyl-2′,3′-dideoxy-3′-thiacytidine] | – | – | – | – | – | IC50 [1, 4]: 4.8 µg/mL (≈ 10.9 µM); IC50 [2, 4]: 0.3 µg/mL (≈ 0.682 µM); IC50 [3, 6]: 0.3 µg/mL (≈ 0.682 µM) |
| Cc1cn([C@H]2C[C@H](F)[C@@H](COC(=O)CCC(=O)OC[C@H]3O[C@@H](n4cc(C)c(=O)[nH]c4=O)C[C@@H]3F)O2)c(=O)[nH]c1=O [KPH-912, FLT-succinate-FLT] | – | – | – | 2.1 µg/mL (≈ 3.68 µM) | 3.7 µM | – |
| CCCCCCCCCCCCCCOC[C@H]1O[C@@H](n2cc(C)c(=O)[nH]c2=O)C[C@@H]1F [3′-fluoro-2′,3′-dideoxy-5′-O-(tetradecyl)thymidine] | 79.1 µg/mL (≈ 180 µM) | 77.3 µg/mL (≈ 175 µM) | >100 µg/mL | – | – | – |
| CC(=O)NC(CCC(=O)OC[C@H]1O[C@@H](n2cc(C)c(=O)[nH]c2=O)C[C@@H]1N=[N+]=[N-])C(=O)OC[C@@H]1O[C@H](n2ccc(N)nc2=O)CS1 (stereo partly shown) [KPH-911, AZT(Glutamyl)-3TC] | – | – | – | 7.8 µg/mL (≈ 12 µM) | 12 µM | – |
| CCCCCCCCCCCCC(OC)C(=O)OC[C@H]1O[C@@H](n2cc(C)c(=O)[nH]c2=O)C[C@@H]1F (stereo partly shown) [3′-fluoro-2′,3′-dideoxy-5′-O-(2-methoxytetradecanoyl)thymidine] | 0.5 µg/mL (≈ 1.03 µM) | 0.1 µg/mL (≈ 0.206 µM) | >100 µg/mL | – | – | – |
| CCCCCCCCCCCCCCC(=O)OC[C@H]1O[C@@H](n2cc(C)c(=O)[nH]c2=O)C[C@@H]1N=[N+]=[N-] [3′-azido-2′,3′-dideoxy-5′-O-(pentadecanoyl)thymidine] | 8.8 µg/mL (≈ 17.9 µM) | 2.2 µg/mL (≈ 4.47 µM) | >100 µg/mL | – | – | – |
| CCCCCCCCCCCCCC(=O)OC[C@H]1O[C@@H](n2cc(C)c(=O)[nH]c2=O)C[C@@H]1N=[N+]=[N-] [3′-azido-2′,3′-dideoxy-5′-O-(tetradecanoyl)thymidine] | 1.5 µg/mL (≈ 3.14 µM) | 2.4 µg/mL (≈ 5.03 µM) | >100 µg/mL | – | – | – |
| CCSCCCCCCCCCCCC(=O)Nc1ccn([C@H]2CS[C@@H](CO)O2)c(=O)n1 [N4-(13-thiapentadecanoyl)-2′,3′-dideoxy-3′-thiacytidine] | – | – | – | – | – | IC50 [1, 4]: 2.5 µg/mL (≈ 5.3 µM); IC50 [2, 4]: 0.2 µg/mL (≈ 0.424 µM); IC50 [3, 6]: > 100 µg/mL |
| Cc1cn([C@H]2C=C[C@@H](COC(=O)CCCCCCCCCCCN=[N+]=[N-])O2)c(=O)[nH]c1=O [5′-O-(12-azidodecanoyl)-2′,3′-didehydro-2′,3′-dideoxythymidine] | 3.0 µg/mL (≈ 6.7 µM) | 1.4 µg/mL (≈ 3.13 µM) | 10.0 µg/mL (≈ 22.3 µM) | – | – | – |
| CCCCCCCCCCCCCC(=O)NC(CCC(=O)OC[C@H]1O[C@@H](n2cc(C)c(=O)[nH]c2=O)C[C@@H]1F)C(=O)OC[C@H]1O[C@@H](n2cc(C)c(=O)[nH]c2=O)C[C@@H]1N=[N+]=[N-] (stereo partly shown) [KPH-99] | – | – | – | 2.0 µg/mL (≈ 2.4 µM) | 2.4 µM | – |
| Cc1cn([C@H]2C[C@H](N=[N+]=[N-])[C@@H](COC(=O)CCC(=O)OC[C@H]3O[C@@H](n4cc(C)c(=O)[nH]c4=O)C[C@@H]3N=[N+]=[N-])O2)c(=O)[nH]c1=O [KPH-913, AZT-succinate-AZT] | – | – | – | 8.6 µg/mL (≈ 13.9 µM) | 13.9 µM | – |
| CC(=O)NC(CCC(=O)OC[C@H]1O[C@@H](n2cc(C)c(=O)[nH]c2=O)C[C@@H]1F)C(=O)OC[C@@H]1O[C@H](n2ccc(N)nc2=O)CS1 (stereo partly shown) [KPH-96, FLT(Glutamyl)-3TC] | – | – | – | 10.7 µg/mL (≈ 17.1 µM) | 17.1 µM | – |
